According to the NIST ThermoML archive (doi:10.1021/acs.jced.7b00766):
± gives the expanded uncertainty stated by the source.

Conditions: Liquid, Ebulliometric method (Recirculating still)

CCCCO [butan-1-ol]
vapor or sublimation pressure (385.75 K): 85 ± 1 kPa

CCCCCCC [heptane]
vapor or sublimation pressure (365.65 K): 85 ± 1 kPa

CO [methanol]
vapor or sublimation pressure (333.15 K): 85 ± 1 kPa

Nc1ccccc1 [aniline]
vapor or sublimation pressure (450.25 K): 85 ± 1 kPa
